Experimental data: patent US20260248972A1, “DUAL RECEPTOR TARGETING RADIOLIGANDS AND USES THEREOF RELATED APPLICATIONS” (priority 2022, published 2026)

Experiments:
SSTR2 = molecular target: T1, SSTR2 (Rattus norvegicus, UniProt P30680); assay: Competitive cell-binding assay on AR42J cells with 125I-C1 as competitive ligand
T1 construct: host or cells: AR42J cells
Description: AR42J cells (ATCC) were maintained in RPMI-1640 medium (Gibco) supplemented with 15% fetal bovine serum (Gibco) and 1% penicillin-streptomycin (BI) at 37° C. in a humidified incubator with 5% CO2. The culture medium was replaced with fresh medium every 2-3 days. Experiments were performed with cells at 70-80% confluence.
Binding Affinity Tested by Using ^125I-Labeled Competitive Ligands.
The binding affinities of test compounds were determined by a competitive cell-binding assay using ^125I-C1 and ^125I-C3 as the competitive ligand. The suspended AR42J cells at a density of 1~3×10^6 cells/mL in binding buffer (RPMI-1640 medium supplemented with 0.25% bovine serum albumin) were transferred to a MultiScreen-DV Filter Plate (Millipore) with 100 μL per well except the blank group where the binding buffer was used instead. The cells were then incubated with ^125I-C1 and ^125I-C3 (0.02 μCi/well) in the presence of increasing concentrations (0-10000 nM) of test compounds at 37° C. for 1 h (n=3). The final volume in each well was maintained at 200 μL and insufficient volume was adjusted by the binding buffer. After the 1 h incubation, unbound ^125I-competitive ligands were removed by filtration using a Multiscreen vacuum manifold (Millipore) followed by rinses with the binding buffer (3 times). The filters were collected, and their radioactivity were individually measured by γ counter (2480 WIZARD2, PerkinElmer). The best-fit IC50value (inhibitory concentration when 50% of the bound ^125I-C1 and ^125l I-C3 on cells were displaced) of test compounds were calculated by fitting the data with nonlinear regression using GraphPad Prism 8.0.1.

in vivo = conditions: BALB/c nude, mouse, iv, total radioactivity
Summary of the method: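 Tissue uptake given as % ID and % ID/g from γ counting of organs taken 4, 24 and 72 h after injection into BALB/c nude mice carrying subcutaneous AR42J xenografts (0.05-0.50 g). Tracers were ^177Lu-labelled at 95° C for 15 min in pH 4.5 NaOAc buffer and used neat or diluted in PBS containing 3 mg/mL ascorbate.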

T1 sequence (P30680 whole entry): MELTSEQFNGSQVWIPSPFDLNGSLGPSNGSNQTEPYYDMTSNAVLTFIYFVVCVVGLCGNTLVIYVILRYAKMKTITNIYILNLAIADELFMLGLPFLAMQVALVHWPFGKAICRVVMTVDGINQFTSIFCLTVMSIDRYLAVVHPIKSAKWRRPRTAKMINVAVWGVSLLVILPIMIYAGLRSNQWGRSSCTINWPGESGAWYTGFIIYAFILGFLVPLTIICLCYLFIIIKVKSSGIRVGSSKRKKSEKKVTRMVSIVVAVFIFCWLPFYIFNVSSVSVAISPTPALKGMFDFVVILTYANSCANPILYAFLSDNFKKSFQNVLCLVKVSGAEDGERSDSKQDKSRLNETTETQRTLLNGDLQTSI

## C[C@@H](O)[C@H](NC(=O)[C@@H]1CSSC[C@H](NC(=O)[C@@H](Cc2ccccc2)NC(=O)CN2CCN(CC(=O)O)CCN(CC(=O)O)CCN(CC(=O)O)CC2)C(=O)N[C@@H](Cc2ccc(O)cc2)C(=O)N[C@H](Cc2c[nH]c3ccccc23)C(=O)N[C@@H](CCCCN)C(=O)N[C@@H]([C@@H](C)O)C(=O)N1)C(=O)O [Compound C-1, DOTA-f[CYwKTC]T-OH, reference compound]
SSTR2
  IC50: 2.81 nM

## C[C@@H](O)[C@H](NC(=O)[C@@H]1CSSC[C@H](NC(=O)[C@@H](Cc2ccccc2)NC(=O)COCCOCCNC(=O)COCCOCCNC(=O)[C@H](CCCCNC(=O)CC[C@H](NC(=O)CNC(=O)c2cccc(NC(=O)N[C@@H]3CN(C4CCCCC4)c4ccccc4N(CC(=O)C(C)(C)C)C3=O)c2)C(=O)O)NC(=O)CN2CCN(CC(=O)O)CCN(CC(=O)O)CCN(CC(=O)O)CC2)C(=O)N[C@@H](Cc2ccc(O)cc2)C(=O)N[C@H](Cc2c[nH]c3ccccc23)C(=O)N[C@@H](CCCCN)C(=O)N[C@@H]([C@@H](C)O)C(=O)N1)C(=O)O [Compound I-2, DOTA-K(-gE-G-Z360)-OEG-OEG-f[CYwKTC]T-OH]
SSTR2; based on mean IC50, C-1 = 1.00
  Relative Binding Affinity SSTR2: 2.94

## CCCC[C@H](NC(=O)[C@H](Cc1c[nH]c2ccccc12)NC(=O)CNC(=O)[C@H](Cc1ccc(O)cc1)NC(=O)[C@H](C)NC(=O)[C@@H](CCC(=O)O)NC(=O)[C@@H](CCC(=O)O)NC(=O)[C@@H](CCC(=O)O)NC(=O)[C@@H](CCC(=O)O)NC(=O)[C@@H](CCC(=O)O)NC(=O)[C@@H](CCC(=O)O)NC(=O)CN1CCN(CC(=O)O)CCN(CC(=O)O)CCN(CC(=O)O)CC1)C(=O)N[C@@H](CC(=O)O)C(=O)N[C@@H](Cc1ccccc1)C(N)=O [^177Lu-C-2, metal not drawn, reference compound]
In vivo; in vivo, % ID/g Blood
  tissue uptake at 4 h: 0.08 %ID/g
  tissue uptake at 24 h: 0.01 %ID/g
In vivo; in vivo, % ID/g Femur
  tissue uptake at 4 h: 0.12 %ID/g
  tissue uptake at 24 h: 0.24 %ID/g
In vivo; in vivo, % ID/g Heart
  tissue uptake at 4 h: 0.05 %ID/g
  tissue uptake at 24 h: 0.04 %ID/g
In vivo; in vivo, % ID/g Intestine
  tissue uptake at 4 h: 0.06 %ID/g
  tissue uptake at 24 h: 0.05 %ID/g
In vivo; in vivo, % ID/g Kidney
  tissue uptake at 4 h: 2.72 %ID/g
  tissue uptake at 24 h: 0.71 %ID/g
In vivo; in vivo, % ID/g Liver
  tissue uptake at 4 h: 0.15 %ID/g
  tissue uptake at 24 h: 0.12 %ID/g
In vivo; in vivo, % ID/g Lung
  tissue uptake at 4 h: 0.06 %ID/g
  tissue uptake at 24 h: 0.11 %ID/g
In vivo; in vivo, % ID/g Muscle
  tissue uptake at 4 h: 0.06 %ID/g
  tissue uptake at 24 h: 0.01 %ID/g
In vivo; in vivo, % ID/g Pancreas
  tissue uptake at 4 h: 0.01 %ID/g
In vivo; in vivo, % ID/g Spleen
  tissue uptake at 4 h: 0.06 %ID/g
  tissue uptake at 24 h: 0.05 %ID/g
In vivo; in vivo, % ID/g Stomach
  tissue uptake at 4 h: 0.21 %ID/g
  tissue uptake at 24 h: 0.17 %ID/g
In vivo; in vivo, % ID/g Tumor
  tissue uptake at 4 h: 1.07 %ID/g
  tissue uptake at 24 h: 0.82 %ID/g
In vivo; pancreas, % ID/g Pancreas, 24 h post-injection, n=3
  tissue uptake at 24 h: 0.02 %ID/g
